The text below walks through data of PMC2667214, “End-Tagging of Ultra-Short Antimicrobial Peptides by W/F Stretches to Facilitate Bacterial Killing” (PLoS ONE, 2009).

The subject of data set [1] is Escherichia coli ATCC 25922. In kind it is cell-based. As to conditions: ATCC 25922, 100. How it is done: (§1) Essentially as described earlier, [31] bacteria were grown to mid-logarithmic phase in 10 ml of full-strength (3% w/v) trypticase soy broth (TSB) (Becton-Dickinson, Cockeysville, USA). The microorganisms were then washed once with 10 mM Tris, pH 7.4. Subsequently, 4×10^6 bacterial colony forming units were added to 15 ml of the underlay agarose gel, consisting of 0.03% (w/v) TSB, 1% (w/v) low electroendosmosis type (EEO) agarose (Sigma-Aldrich, St. Louis, USA) and 0.02% (v/v) Tween 20 (Sigma-Aldrich, St. Louis, USA). The underlay was poured into a Ø 144 mm petri dish. After agarose solidification, 4 mm-diameter wells were punched and 6 µl of peptide with required concentration added to each well. Plates were incubated at 37°C for 3 hours to allow diffusion of the peptides. The underlay gel was then covered with 15 ml of molten overlay (6% TSB and 1% Low-EEO agarose in distilled H2O). […]
(§2) Figure 1 Antibacterial and hemolytic activity of peptides. (A) Antibacterial activity of PEPscreen peptides as assessed by radial diffusion assay (RDA) in the presence and absence of 0.15 M NaCl against E. coli ATCC 25922 and S. aureus ATCC 29213, as well as hemolysis. […] The absorbance of hemoglobin release was measured at 540 nm and is expressed as % of Triton X-100 induced hemolysis. […]

In data set [2] the test system is Staphylococcus aureus ATCC 29213. In kind it is cell-based. Conditions: ATCC 29213, 100. The method, then:
as §1, §2

Data set [3] deals with T1, S. aureus aureolysin (Staphylococcus aureus, UniProt P81177).
T1 construct: purchased BioCol GmbH (Potsdam, Germany)
T1 sequence (P81177 209-509): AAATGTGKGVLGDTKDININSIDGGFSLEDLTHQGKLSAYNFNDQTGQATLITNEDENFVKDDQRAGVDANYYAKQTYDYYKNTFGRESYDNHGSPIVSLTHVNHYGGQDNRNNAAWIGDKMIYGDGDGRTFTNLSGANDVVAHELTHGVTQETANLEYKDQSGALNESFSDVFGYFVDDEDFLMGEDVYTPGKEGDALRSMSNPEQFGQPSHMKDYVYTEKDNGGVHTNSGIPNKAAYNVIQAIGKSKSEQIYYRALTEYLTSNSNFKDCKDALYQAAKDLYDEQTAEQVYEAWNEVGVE
In kind it is in vitro ADME. As to conditions: peptide 1 µg, aureolysin 0.1 µg, 30 µl, 3 hours 37°C, SDS-PAGE 16.5% Tris-Tricine, Coomassie. The method, then: (§3) Peptides (1 µg) were incubated at 37°C with S. aureus aureolysin (0.1 µg, 25000 units/mg), S. aureus V8 proteinase (0.1 µg, 2000 mU), both from BioCol GmbH (Potsdam, Germany), or neutrophil elastase (0.4 µg, 29 units/mg; Calbiochem (La Jolla, USA)) in a total volume of 30 µl for 3 hours. The materials were analyzed on 16.5% precast sodium dodecyl sulfate polyacrylamide (SDS-PAGE) Tris-Tricine gels (BioRad, Hercules, USA) and analyzed after staining with Coomassie Blue R-250 (Merck, Darmstadt, Germany).
(§4) Figure 5 (A) Protease sensitivity of peptides. KNK10 and KNK10-WWWWW were incubated with (+) or without (−) the S. aureus enzymes aureolysin (Aur), V8 proteinase (V8), or human leukocyte elastase (HLE), and analyzed by SDS-PAGE (16.5% Tris-Tricine gels). (B) Activities of peptides in an ex vivo skin infection model. Pig skin was inoculated with E. coli ATCC 25922 (upper panel) or S. aureus ATCC 29213 (lower panel). Peptides at 1 mM were added after an incubation time of 4 h. Bacteria were collected after 2 h and cfu determined (mean values are presented, n = 6). Note the logarithmic scale on the y-axis. (In Figure 5B, the difference between tagged and non-tagged peptide is statistically significant in all cases (P<0.002, one way ANOVA).)

The target in data set [4] is T2, S. aureus V8 proteinase (Staphylococcus aureus, UniProt P0C1U8).
T2 construct: purchased BioCol GmbH (Potsdam, Germany)
T2 sequence (P0C1U8 69-336): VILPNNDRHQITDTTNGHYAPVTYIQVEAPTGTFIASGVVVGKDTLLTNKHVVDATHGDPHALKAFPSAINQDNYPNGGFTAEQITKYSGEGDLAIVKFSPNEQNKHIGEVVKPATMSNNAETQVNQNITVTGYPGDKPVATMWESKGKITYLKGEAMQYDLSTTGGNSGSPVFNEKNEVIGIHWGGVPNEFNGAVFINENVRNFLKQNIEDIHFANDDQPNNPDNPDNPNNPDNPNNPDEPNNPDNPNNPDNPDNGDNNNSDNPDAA
In kind it is in vitro ADME. Conditions: peptide 1 µg, V8 proteinase 0.1 µg, 30 µl, 3 hours 37°C, SDS-PAGE 16.5% Tris-Tricine, Coomassie. The method, then:
as §3, §4

Data set [5] has as its target T3, human leukocyte elastase (Homo sapiens, UniProt P08246).
T3 construct: purchased Calbiochem (La Jolla, USA)
T3 sequence (P08246 30-267): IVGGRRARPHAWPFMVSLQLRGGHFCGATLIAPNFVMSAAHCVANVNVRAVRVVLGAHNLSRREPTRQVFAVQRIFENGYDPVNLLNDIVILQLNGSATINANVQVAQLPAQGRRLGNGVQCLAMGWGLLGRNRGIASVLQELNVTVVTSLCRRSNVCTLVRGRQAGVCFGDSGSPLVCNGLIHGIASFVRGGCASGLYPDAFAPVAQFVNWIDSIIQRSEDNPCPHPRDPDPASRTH
Put plainly: Protease sensitivity assay. In kind it is in vitro ADME. Conditions: peptide 1 µg, neutrophil elastase 0.4 µg, 30 µl, 3 hours 37°C, SDS-PAGE 16.5% Tris-Tricine, Coomassie. How it is done:
as §3, §4

Residues, ends and D or L forms follow the SMILES beside them. No end group written: not given here.

As for `N[C@@H](Cc1c[nH]c2ccccc12)C(=O)N[C@@H](Cc1c[nH]c2ccccc12)C(=O)N[C@@H](Cc1c[nH]c2ccccc12)C(=O)O` [WWW] (H-Trp-Trp-Trp-OH), the “clearance zone in RDA” value in data set [1] and in data set [2] was 0 mm in each case.

KNKGKKNGKH [KNK10]: the “stability against proteolytic degradation (in words)” value (from here on “stability”) in data set [3] and in data set [4] was “good stability” in each case.

For `CC[C@H](C)[C@H](NC(=O)[C@H](CCCCN)NC(=O)[C@H](CCC(=O)O)NC(=O)[C@H](CCCCN)NC(=O)[C@H](CO)NC(=O)[C@H](CCCCN)NC(=O)[C@H](CCCNC(=N)N)NC(=O)[C@H](Cc1ccccc1)NC(=O)[C@H](Cc1ccccc1)NC(=O)[C@H](CC(=O)O)NC(=O)CNC(=O)[C@H](CC(C)C)NC(=O)[C@@H](N)CC(C)C)C(=O)NCC(=O)N[C@@H](CCCCN)C(=O)N[C@@H](CCC(=O)O)C(=O)N[C@@H](Cc1ccccc1)C(=O)N[C@@H](CCCCN)C(=O)N[C@@H](CCCNC(=N)N)C(=O)N[C@H](C(=O)N[C@H](C(=O)N[C@@H](CCC(N)=O)C(=O)N[C@@H](CCCNC(=N)N)C(=O)N[C@H](C(=O)N[C@@H](CCCCN)C(=O)N[C@@H](CC(=O)O)C(=O)N[C@@H](Cc1ccccc1)C(=O)N[C@@H](CC(C)C)C(=O)N[C@@H](CCCNC(=N)N)C(=O)N[C@@H](CC(N)=O)C(=O)N[C@@H](CC(C)C)C(=O)N[C@H](C(=O)N1CCC[C@H]1C(=O)N[C@@H](CCCNC(=N)N)C(=O)N[C@H](C(=O)N[C@@H](CCC(=O)O)C(=O)N[C@@H](CO)C(=O)O)[C@@H](C)O)C(C)C)[C@@H](C)CC)C(C)C)[C@@H](C)CC` [LL-37], the “stability” value in data set [3], in data set [4] and in data set [5] was “substantial degradation” throughout.

On to KNKGKKNGKHWWWWW [KNK10-WWWWW], for which the “stability” value in data set [3] and in data set [4] was “good stability” each time.
